# Read-outs that look alike come from different tables or passages of the source.
# Assays:
# Acinetobacter baumannii = test: antibacterial activity in vitro, agar dilution method; format: cell-based; conditions: for MIC90: Table 5, MIC90 = 90% inhibitory concentration
# From the text: (§1) The antibacterial spectrum and in vitro antibacterial activity of the compound of the present invention
# (§2) Experimental method: the agar dilution method, with reference to Clinical And Laboratory Standards Institute. Methods for Dilution Antimicrobial Susceptibility Tests for Bacteria That Grow Aerobically; Approved Standard-Seventh Edition. CLSI Document M7-A7. Vol 26, no. 2, Wayne, Pa.: Clinical and Laboratory Standards Institute, 2006.
# (§3) Wherein MIC represents the minimum inhibitory concentration, MIC90 represents the 90% inhibitory concentration.
# Hemophilus influenzae = test: as above; format: cell-based; conditions: Haemophilus influenzae; Table 5; MIC90 = 90% inhibitory concentration
# From the text: as §1, §2, §3
# [1] = system: Acinetobacter calcoaceticus; test: as above; format: cell-based; conditions: Table 4
# From the text: as §1, §2, §3
# [2] = system: Streptococcus constellatus; test: as above; format: cell-based; conditions: Table 5, MIC90 = 90% inhibitory concentration
# From the text: as §1, §2, §3
# Escherichia coli = test: as above; format: cell-based
# From the text: as §1, §2, §3
# [3] = system: Methicillin-resistant Staphylococcus aureus (MRSA); test: as above; format: cell-based; conditions: for MIC90: Table 5, MIC90 = 90% inhibitory concentration
# From the text: as §1, §2, §3
# Staphylococcus aureus [4] = test: as above; format: cell-based; conditions: for MIC90: Staphylococcus aureus, Table 5, MIC90 = 90% inhibitory concentration; for MIC: Table 10, Staphylococcus aureus of the thigh model
# From the text: as §1, §2, §3
# Enterococcus faecalis = test: as above; format: cell-based; conditions: Table 4
# From the text: as §1, §2, §3
# Klebsiella pneumoniae = test: as above; format: cell-based
# From the text: as §1, §2, §3
# Streptococus agalactiae = test: as above; format: cell-based; conditions: Table 4
# From the text: as §1, §2, §3
# in vivo = test: in vivo; set-up: species or system male SD rats; conditions: male, SD, rat, 5 mg/kg
# Experimental: Test animals: male SD rats, weighing 180-280 g, purchased from Beijing Vital River Laboratory Animal Technology Co., Ltd.; animal Certificate of Conformity: SCXK (Beijing) 2006-0009. Six rats were tested for each compound. the compounds of the present invention, prepared in accordance with the methods of above Examples, dissolved in physiological saline. tigecycline, dissolved in physiological saline. Administration of the compounds of the present invention: intravenous bolus injection (iv), dose: 5 mg/kg, administrating volume: 5 mL/kg; gavage (po), dose: 5 mg/kg, administrating volume: 5 mL/kg. Administration of tigecycline: gavage (po), dose: 10 mg/kg, administrating volume: 5 mL/kg. Prior to administration help but water fasting for 16 hours, 4 hours after administration to food. Compound 9: iv blood sampling time point: denoted by 0 min before administration, 5 min, 15 min, 30 min, 1 […] after administration; po blood sampling time point: denoted by 0 min before administration, 5 min, 15 min, 30 min, 1 […] after administration; Compound 20: iv blood sampling time point: 5 min, 15 min, 30 min, 1 […] after administration; po blood sampling time point: 10 min, 30 min, 1 […] after administration; Compound 23: iv blood sampling time point: denoted by 0 min before administration, 5 min, 15 min, 30 min, 1 […] after administration; po blood sampling time point: denoted by 0 min before administration, 5 min, 15 min, 30 min, 1 […] after administration; Tigecycline: iv blood sampling time point: 5 min, 15 min, 30 min, 1 h, 2 h, 4 h, 6 h, 8 h after administration; po blood sampling time point: 10 min, 30 min, 1 […] after administration. Each time point is taken around 100 μl whole blood and placed in a heparinized tube, centrifugated at 8000 rpm/min at 4° C. for 6 minutes in a low-temperature high-speed centrifuge to separate plasma, the resulting plasma was frozen at -80° C. refrigerator. Plasma samples analysis: 20 μl of plasma was taken and added 200 μl of internal standard solution, subjected to vortex for 3 minutes, then to centrifugation at 12,000 rpm/min for 5 minutes. 100 μl of supernatant was taken and analyzed using LC-MS/MS. Formula Absolute Bioavailability F%=[AUC](po)×Dose(iv)/[AUC](iv)×Dose(po)
# Staphylococcus aureus [5] = test: bactericidal effects in vivo in neutropenic mouse thigh model with Staphylococcus aureus infection; set-up: species or system mice; conditions: for change values (24 h vs blank group mean 0 h) / log10 CFU for each thigh, mean ± standard deviations (24 h): 2 dose times, subcutaneous
# Experimental: Bactericidal Effects of the Present Compounds In Vivo in Mouse Thigh Model with Staphylococcus aureus Infection SPF grade CD-1 (ICR) female mice housed in SPF environment, weighing 25±2 g, purchased from Beijing Vital River Laboratory Animal Technology Co., Ltd., licensed […] No: SCXK (Beijing) 2006-0009. Staphylococcus aureus: purchased from Shanghai Renji Hospital. Four days before bacterial infection, intraperitoneal (ip) injection of cyclophosphamide 150 mg/kg; 1 day before bacterial infection, intraperitoneal (ip) injection of cyclophosphamide 100 mg/kg; Picked fresh Staphylococcus aureus single colonies which were plate cultured for 18 h, and inoculated into broth and cultured at 35° C. for 18 h. The bacterial suspension was diluted with broth, and 0.5 McFarland turbidity standard indicator bacteria suspension was prepared with a McFarland turbiditor, 10-fold diluted with broth and injected into the thigh muscle of mice in an amount of 0.1 mL for each thigh. The concentration of the bacteria suspension was about 10^6-10^7 CFU/ml. The inoculum concentration was determined by an agar-plate count method. Blank Group: the animals were sacrificed by dislocation at 2 h (recorded as 0 h) after the inoculation of bacteria. Solvent group: The first administration time was set at 2 h (denoted as 0 h) after the animals were infected with bacteria, the solvent was subcutaneously administrated, the animals were sacrificed by dislocation at 24 h after the administration. Treatment group: The first administration time was set at 2 h (denoted as 0 h). […] The thigh muscle tissue was separated from the sacrificed animals, and 5 mL of sodium chloride injection was added, homogenated. The homogenate obtained were diluted series, taken 0.05 mL and inoculated to agar plates, two plates were inoculated in parallel for each gradient bacterial suspension, and incubated at 35° C. for 18 h. Observe the growth of the colonies on each plate, and select the plates with the number of colonies between 30-300 for colony count. The number of colonies was recorded as n1, n2. N represents the diluted fold. The number of colonies (units CFU) for each thigh was calculated according to the formula of “(n1+n2)/2/0.05×5×N”. A logarithm to the base 10 for the number of colonies of each thigh was calculated to obtain log10 CFU value for each thigh.
# Streptococcus pyogenes = test: antibacterial activity in vitro, agar dilution method; format: cell-based; conditions: Table 2
# From the text: as §1, §2, §3
# [6] = system: Methicillin-resistant Staphycoccus epidermidis (MRSE); test: as above; format: cell-based; conditions: Staphylococcus epidermidis, Table 2
# From the text: as §1, §2, §3
# [7] = Table 4, agar dilution, read-out: antibacterial activity MIC, Acinetobacter baumannii
Compound,MIC (Acinetobacter baumannii; [7]) [µg/mL],MIC90 (Acinetobacter baumannii) [µg/mL],MIC90 (Hemophilus influenzae) [µg/mL],MIC [1] [µg/mL],MIC90 [2] [µg/mL],MIC (Escherichia coli; Table 4) [µg/mL],"MIC ([3]; Table 4, agar dilution) [µg/mL]",MIC90 [3] [µg/mL],MIC90 (Staphylococcus aureus [4]) [µg/mL],MIC (Staphylococcus aureus [4]) [µg/mL],MIC (Enterococcus faecalis) [µg/mL],MIC (Klebsiella pneumoniae; Table 4) [µg/mL],MIC (Streptococus agalactiae) [µg/mL],change values (24 h vs blank group mean 0 h) (Staphylococcus aureus [5]; 2 mg/kg/day) [log10 CFU],"log10 CFU for each thigh, mean ± standard deviations (24 h) (Staphylococcus aureus [5]; 2 mg/kg/day) [log10 CFU]",bactericidal effect against Staphylococcus aureus in vivo in mice (Staphylococcus aureus [5]; 6 mg/kg/day),change values (24 h vs blank group mean 0 h) (Staphylococcus aureus [5]; 6 mg/kg/day) [log10 CFU],"log10 CFU for each thigh, mean ± standard deviations (24 h) (Staphylococcus aureus [5]; 6 mg/kg/day) [log10 CFU]",change values (24 h vs blank group mean 0 h) (Staphylococcus aureus [5]; 18 mg/kg/day) [log10 CFU],"log10 CFU for each thigh, mean ± standard deviations (24 h) (Staphylococcus aureus [5]; 18 mg/kg/day) [log10 CFU]",other results
"CN(C)c1cc(CN2CC3CC3C2)c(O)c2c1C[C@H]1C[C@H]3[C@H](N(C)C)C(O)=C(C(N)=O)C(=O)[C@@]3(O)C(O)=C1C2=O (stereo partly drawn) [Compound 23, (4S,4aS,5aR,12aS)-9-(3-azabicyclo[3.1.0]hexan-3-ylmethyl)-4,7-bis(dimethylamino)-3,10,12,12a-tetrahydroxy-1,11-dioxo-1,4,4a,5,5a,6,11,12a-octahydrotetracene-2-carboxamide]",1,2,0.5,0.125,0.125,0.25,0.25,0.5,0.25,0.25,0.06,1,0.06,1.28,7.67 ± 0.17,had bactericidal effect,−0.12,6.27 ± 0.41,−2.04,4.35 ± 0.45,AUC(0-inf) (in vivo; iv): 9110 ng·h/mL; Vd (in vivo; iv): 5 L/kg; clearance (in vivo; iv): 9.33 mL/min/kg; half-life (in vivo; iv): 9.94 h; AUC(0-inf) (in vivo; po): 2000 ng·h/mL; Cmax (in vivo; po): 199 ng/mL; Tmax (in vivo; po): 1 h; bioavailability (in vivo; po): 22%; bacteria reducing value of each thigh (Staphylococcus aureus [5]; 6 mg/kg/day): 0.12
"CN(C)c1cc(CNCC(C)(C)C)c(O)c2c1C[C@H]1C[C@H]3[C@H](N(C)C)C(O)=C(C(N)=O)C(=O)[C@@]3(O)C(O)=C1C2=O [PTK-0796, reference compound]",4,8,1,0.5,0.5,4,2,2,0.5,0.5,0.25,8,0.5,1.77,8.16 ± 0.13,did not show bactericidal effect,1.20,7.59 ± 0.21,−1.05,5.34 ± 0.79,"MIC (Streptococcus pyogenes): 0.25 µg/mL; MIC (Acinetobacter baumannii; Table 2, agar dilution, read-out: antibacterial activity MIC, Acinetbacter baumannii): 2 µg/mL; MIC [6]: 0.5 µg/mL; MIC (Escherichia coli; Table 2): 1 µg/mL; MIC ([3]; Table 2, agar dilution): 0.5 µg/mL; MIC (Klebsiella pneumoniae; Table 2): 4 µg/mL; bacteria growing values of each thigh (Staphylococcus aureus [5]; 6 mg/kg/day): 1.20"

# Reference: patent publication US9365499B2, “9-aminomethyl substituted tetracycline compounds” (KBP Biosciences Co., Ltd., priority 2011, dated 2016)
